Results reported in patent US10842807B2, “Methods of treating neurodegenerative disorders comprising DNA methyltransferase inhibitors” (Washington University, priority 2016, dated 2020).

Assays:
cytidine deaminase = biological target: T1, cytidine deaminase (Homo sapiens, UniProt P32320); conditions: literature refs 62, 64; cited from earlier work
T1 construct: host or cells: liver (in vivo)

[1] = test system: Bdnf exon IV, VI, and IX transcripts; assay: qRT-PCR of Bdnf exon transcripts in Htt-72Q cortical neurons; type: cell-based, mouse; conditions: Htt-72Q-expressing cortical neurons; vs. Htt-72Q plus vehicle
Method: RNA was harvested 5 days later and subjected to qRT-PCR for total Bdnf (coding exon IX) using β-actin and 18S rRNA as reference genes. […] FIG. 3C depicts the schematic of the mouse Bdnf locus and the relative RNA levels of the Bdnf exons. White boxes, non-coding exons; gray box, coding exon. qRT-PCR was performed as in using exon-specific Bdnf primers. […] (FIG. 3G, FIG. 3H) Cortical neurons were co-transduced with lenti viruses expressing Htt and indicated shRNA and processed as in (FIG. 3C). […] (FIG. 3I) Primary cortical neurons from BACHD mice were treated with decitabine (0.2 μM) or vehicle for 3.5 days. qRT-PCR was performed using β-actin as a reference gene. […] Data are presented as mean+SEM.
Mouse primary cortical and striatal neurons from embryonic day (E) 15.5 Swiss Webster mouse fetuses (Taconic) were first plated in the minimal essential medium (MEM) containing 10% FBS, 0.45% glucose, 1 mM sodium pyruvate, 2 mM glutamine, 20 U/ml penicillin and 20 μg/ml streptomycin, for 3 h and then maintained in serum-free Neurobasal medium (Life Technologies) containing NeuroCult™ SM1 neuronal supplement ([…] Technologies), 0.5 mM glutamine and 25 μM glutamate for the first 3 d in a humidified incubator (37° C. in 5% CO2). Half of the medium was replaced with Neurobasal medium with SM1 and 0.5 mM glutamine every 3 days.

Htt-72Q mRNA = assay: qRT-PCR for Htt-72Q (human) mRNA in cortical neurons; type: cell-based, mouse; conditions: RNA at DIV 10, compared to vehicle (DMSO)
Method: (FIG. 8A) DIV 5 mouse primary cortical neurons were infected with Htt-72Q lentivirus and treated with decitabine or vehicle (DMSO). RNA was prepared at DIV 10 and subjected to qRT-PCR analysis for Htt-72Q (human). β-actin and Hprt were used as reference genes. […] (FIG. 8B) DIV 5cortical neurons were infected with Htt lentivirus and treated with decitabine (0.2 μM) or DMSO. Neurons were fixed at DIV 11-12 and subjected to indirect immunofluorescence with a specific mouse monoclonal Htt antibody EM48, which preferentially detects aggregated mutant protein. Nuclei were labeled with Hoechst 33342. Images were captured using an Operetta high-content imaging system (PerkinElmer) with a 20× objective lens. Bar 100 μm. (FIG. 8C) EM48 immunofluorescence intensity in (FIG. 8B) was quantified using an ImageJ-based macro. […] (FIG. 8D) Cortical neurons transduced and processed as in (FIG. 8A) were directly harvested in SDS sample buffer at DIV 10 and subjected to immunoblotting with anti-Htt EM48 monoclonal antibody. Blot was reprobed with anti-β-actin antibody. Representative immunoblot from 3 independent experiments is shown. […]
RNAs were isolated from cultured neurons 5 days after infection of Htt lentiviruses and mouse brain using the RNeasy Plus Mini Kit (QIAGEN) and RNeasy Plus Universal Mini Kit (QIAGEN), respectively. […] Relative mRNA levels were calculated using the ΔΔCq method.

[2] = cited from earlier work
[3] = test system: Htt-72Q-expressing primary striatal neurons; assay: Neurofilament (NF) immunofluorescence, neurite degeneration in striatal neurons; type: cell-based, mouse; conditions: DIV 4 striatal neurons transduced, fixed seven days later; vs. Htt-72Q (0 μM)
Method: (§1) Mouse primary cortical and striatal neurons from embryonic day (E) 15.5 Swiss Webster mouse fetuses (Taconic) were first plated in the minimal essential medium (MEM) containing 10% FBS, 0.45% glucose, 1 mM sodium pyruvate, 2 mM glutamine, 20 U/ml penicillin and 20 μg/ml streptomycin, for 3 h and then maintained in serum-free Neurobasal medium (Life Technologies) containing NeuroCult™ SM1 neuronal supplement ([…] Technologies), 0.5 mM glutamine and 25 μM glutamate for the first 3 d in a humidified incubator (37° C. in 5% CO2). Half of the medium was replaced with Neurobasal medium with SM1 and 0.5 mM glutamine every 3 days. Primary cortical neurons plated on 96-well flat clear bottom black plates (Corning #3904) at 4×10^4 cells/well were infected with Htt exon1 expression lentivirus (Htt-25Q or Htt-72Q) or control empty vector lentivirus at 5 days in vitro (DIV 5). Primary striatal neurons plated on 96-well plates at 1×10^5 cells/well were infected with Htt exon1 expression lentivirus at DIV 4. Viral copy number was adjusted for transduction of neurons on the basis of titer measured using the Lenti-X qRT-PCR titration kit (Clontech), and equal numbers of viral particles of Htt-25Q and Htt-72Q expressing lentiviruses were used for transduction. […]
For the measurement of neurofilament (NF) immunofluorescence intensity, cortical and striatal neurons cultured in a 96-well plate were fixed in 4% paraformaldehyde (PFA) in PBS for 20 min nine and seven days after Htt lentiviral infection, respectively, permeabilized with 0.1% Triton X-100 in PBS for 15 min at room temperature, and subjected to indirect immunofluorescence with anti-NF (2H3) primary antibody and Alexa Fluor 568-conjugated goat anti-mouse IgG secondary antibody (Life Technologies). […] Following image background subtraction, the NF immunofluorescence intensity was quantified using an ImageJ-based macro. Image capture and quantification of Htt (EM48) immunofluorescence intensity were performed as described for those of NF. […] About 300 nuclei from three random fields in a well were counted. […]

[4] = In vitro stability: preincubation at 37° C. in saline, then MTS neuroprotection assay; conditions: 0.2 mM in saline preincubated at 37° C. for 11 days, then 0.2 μM on Htt-72Q cortical neurons, MTS at DIV 14
Text: Primary cortical neurons grown in a 96-well plate were transduced with Htt-expressing lentiviruses at DIV 5 and assessed for mitochondrial metabolic activity at 9 days post-infection (DIV 14) using 3-(4,5-dimethylthiazol-2-yl)-5-(3-carboxymethoxyphenyl)-2-(4-sulfophenyl)-2H-tetrazolium (MTS) (Promega) per manufacturer's instructions. MTS-reducing activity was normalized for each condition to Htt-25Q lentiviruses treated with vehicle or cotransduced with control RNAi lentivirus (=1). Experiments were performed in 3 or more wells per experiment in three to five independent experiments.

[5] = literature refs 64, 65; cited from earlier work
[6] = test system: Htt-72Q-expressing primary cortical neurons; assay: Cell death by nuclear morphology (Hoechst 33342); type: cell-based, mouse; conditions: vs. Htt-72Q (0 μM)
Method: as §1, with “transduction. For the experiments to test effects of DNMT inhibitors, neurons were treated with inhibitors six hours after Htt lentiviral infection.” for “transduction.”

[7] = test system: mutant Htt aggregates in Htt-72Q-expressing primary cortical neurons; assay: Mutant Htt aggregates, EM48 immunofluorescence and immunoblotting; type: cell-based, mouse
Method: (FIG. 8A) DIV 5 mouse primary cortical neurons were infected with Htt-72Q lentivirus and treated with decitabine or vehicle (DMSO). […] (FIG. 8B) DIV 5cortical neurons were infected with Htt lentivirus and treated with decitabine (0.2 μM) or DMSO. Neurons were fixed at DIV 11-12 and subjected to indirect immunofluorescence with a specific mouse monoclonal Htt antibody EM48, which preferentially detects aggregated mutant protein. Nuclei were labeled with Hoechst 33342. Images were captured using an Operetta high-content imaging system (PerkinElmer) with a 20× objective lens. Bar 100 μm. (FIG. 8C) EM48 immunofluorescence intensity in (FIG. 8B) was quantified using an ImageJ-based macro. […] (FIG. 8D) Cortical neurons transduced and processed as in (FIG. 8A) were directly harvested in SDS sample buffer at DIV 10 and subjected to immunoblotting with anti-Htt EM48 monoclonal antibody. Blot was reprobed with anti-β-actin antibody. Representative immunoblot from 3 independent experiments is shown. […] Data in (FIG. 8A) and (FIG. 8C) are presented as mean+SEM.

R6/2 HD mouse brain = assay: icv infusion in R6/2 mice, striatal qRT-PCR; type: in vivo; conditions: 0.1 mM in saline icv infusion by osmotic pump from 6 weeks of age, one week, vs. R6/2-saline

T1 sequence (P32320 whole entry, species assumed): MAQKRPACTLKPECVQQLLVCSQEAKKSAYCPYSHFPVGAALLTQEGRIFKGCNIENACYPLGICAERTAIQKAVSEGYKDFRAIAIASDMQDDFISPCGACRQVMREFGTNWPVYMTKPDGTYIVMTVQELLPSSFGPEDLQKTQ

Nc1ncn([C@H]2C[C@H](O)[C@@H](CO)O2)c(=O)n1 [decitabine, 5-aza-2′-deoxycytidine]
degradation by cytidine deaminase in the liver (cytidine deaminase): degraded rapidly | expression of Bdnf exon IV, VI, and IX transcripts [1]: increased the expression of Bdnf exon IV, VI, and IX transcripts | levels of Htt-72Q mRNA (Htt-72Q mRNA): did not decrease the levels of Htt-72Q mRNA | blood-brain barrier crossing ([2]; literature refs 62, 63): reported to cross the blood-brain barrier | in vivo half-life ([2]; literature refs 62, 64): < 20 min | mutant Htt-induced neurite degeneration (NF immunofluorescence intensity), striatal neurons [3]: protected neurons from mutant Htt-induced neurite degeneration | neuroprotective activity after preincubation (in vitro stability) [4]: lost its activity | in vitro stability as reported previously [5]: instability | Htt-72Q induced cell death (condensed or fragmented nuclei) [6]: blocked Htt-72Q induced cell death | levels of mutant Htt aggregates (EM48 immunofluorescence intensity) ([7]; 0.2 μM, fixed at DIV 11-12, vs. Htt-72Q-DMSO): significantly decreased the levels of mutant Htt aggregates | aggregated high molecular weight mutant Htt in stacking gel (EM48 immunoblot) ([7]; harvested at DIV 10): could decrease the levels of aggregated high molecular weight mutant Htt

Nc1nc(=O)n([C@H]2C[C@H](O)[C@@H](CO)O2)cc1F [FdCyd, 5-fluoro-2′-deoxycytidine]
expression of Bdnf exon IV, VI, and IX transcripts [1]: increased the expression of Bdnf exon IV, VI, and IX transcripts | mutant Htt-induced neurite degeneration (NF immunofluorescence intensity), striatal neurons [3]: protected neurons from mutant Htt-induced neurite degeneration | striatal Penk RNA (R6/2 HD mouse brain): trend towards increasing | striatal levels of Drd2, Ppp1r1b, Rasd2, and Adora2a mRNA (R6/2 HD mouse brain): restored
